These results are taken from PubChem BioAssay AID330 (DTP/NCI, 2004).

Several values for one entry are separate records, joined by “and”; a condition that tells them apart may be missing. Equal entries are not always repeated. Inconclusive results and toxic doses are left out.

In the assay the test system is P388 leukemia ip, CD2F1 mice, survival T/C. Nature of the assay: NCI In Vivo Anticancer Drug Screen. Data for tumor model P388 Leukemia (intraperitoneal) in CD2F1 (CDF1) mice. To be noted: endpoint: median survival time, higher = longer survival. The method, boiled down:
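Mice carrying the transplanted tumor received test compound or vehicle. Survival was recorded in each group, and the value is the treated-group measurement divided by that of the vehicle-treated control group.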

Setting [1] is: dose: 50.0 mg/kg/injection, schedule: Q01DX005 (ip), vehicle: saline.
[2] abbreviates: dose: 100.0 mg/kg/injection, schedule: Q01DX005 (ip), vehicle: saline.
Setting [3] is: dose: 200.0 mg/kg/injection, schedule: Q01DX005 (ip), vehicle: saline.
[4] abbreviates: dose: 50.0 mg/kg/injection, schedule: Q01DX005 (ip), vehicle: saline with Tween-80.
Setting [5] is: dose: 100.0 mg/kg/injection, schedule: Q01DX005 (ip), vehicle: saline with Tween-80.
The mark [6] stands for this setting: dose: 50.0 mg/kg/injection, schedule: Q01DX009 (ip), vehicle: Klucel (hydroxypropylcellulose) (HPC).
Setting [7] is: dose: 50.0 mg/kg/injection, schedule: Q01DX009 (ip), vehicle: saline with Tween-80.
[8] abbreviates: dose: 100.0 mg/kg/injection, schedule: Q01DX009 (ip), vehicle: saline with Tween-80.

For `C=CC(=O)OCCN(CCCC)CCCC`, the T/C under setting [1] was 103 % of control, the T/C under setting [2] was 95 % of control and the T/C under setting [3] is 97 % of control.

As for `Cc1ccc(C(=O)C(CN(C)C)CN(C)C)cc1C`, the T/C (dose: 3.12 mg/kg/injection, schedule: Q01DX005 (ip), vehicle: saline) was 109 % of control; the T/C (dose: 6.25 mg/kg/injection, schedule: Q01DX005 (ip), vehicle: saline) is 119 % of control and 124 % of control; the T/C (dose: 25.0 mg/kg/injection, schedule: Q01DX005 (ip), vehicle: saline) was 114 % of control.

As to `CC12CCC3c4ccc(OC(=O)C56C=CC(=O)C5C5C=CC6CC5)cc4CCC3C1CCC2=O` (stereo not given), the T/C reads like this: (dose: 25.0 mg/kg/injection, schedule: Q01DX005 (ip), vehicle: distilled water + Tween-80) 91 % of control; (dose: 50.0 mg/kg/injection, schedule: Q01DX005 (ip), vehicle: distilled water + Tween-80) 95 % of control; (dose: 100.0 mg/kg/injection, schedule: Q01DX005 (ip), vehicle: distilled water + Tween-80) 87 % of control; (dose: 200.0 mg/kg/injection, schedule: Q01DX005 (ip), vehicle: distilled water + Tween-80) 95 % of control.

Take `O=NN(CCCl)C(=O)NC1CCN(Cc2ccccc2)CC1`: the T/C is, setting by setting: (dose: 12.5 mg/kg/injection, schedule: Q04DX003 (ip), vehicle: other) 154 % of control; (dose: 12.5 mg/kg/injection, schedule: Q04DX003 (ip), vehicle: water) 184 % of control; (dose: 25.0 mg/kg/injection, schedule: Q04DX003 (ip), vehicle: other) 183 % of control; (dose: 25.0 mg/kg/injection, schedule: Q04DX003 (ip), vehicle: water) 225 % of control; (dose: 50.0 mg/kg/injection, schedule: Q04DX003 (ip), vehicle: other) 287 % of control; (dose: 50.0 mg/kg/injection, schedule: Q04DX003 (ip), vehicle: water) 281 % of control. Further, the T/C (dose: 100.0 mg/kg/injection, schedule: Q04DX003 (ip), vehicle: other) was 361 % of control.

Take `c1ccc(OCC(COc2ccccc2)(COc2ccccc2)COc2ccccc2)cc1`: the T/C (dose: 7.5 mg/kg/injection, schedule: Q01DX009 (ip), vehicle: saline with Tween-80) was 107 % of control; the T/C (dose: 15.0 mg/kg/injection, schedule: Q01DX009 (ip), vehicle: saline with Tween-80) was 107 % of control; the T/C (dose: 30.0 mg/kg/injection, schedule: Q01DX009 (ip), vehicle: saline with Tween-80) is 104 % of control.

Take `C=CCN(C=O)CC(OCC)OCC`: the T/C runs as follows: (dose: 25.0 mg/kg/injection, schedule: Q01DX005 (ip), vehicle: saline with Tween-80) 100 % of control; under setting [4], 97 % of control; under setting [5], 99 % of control.

For the molecule `CN1CCc2c1n(-c1ccccc1)c(=S)n(-c1ccccc1)c2=S`, the T/C (dose: 50.0 mg/kg/injection, schedule: Q01DX005 (ip), vehicle: Klucel (hydroxypropylcellulose) (HPC)) is 107 % of control; the T/C (dose: 100.0 mg/kg/injection, schedule: Q01DX005 (ip), vehicle: Klucel (hydroxypropylcellulose) (HPC)) was 100 % of control; the T/C (dose: 200.0 mg/kg/injection, schedule: Q01DX005 (ip), vehicle: Klucel (hydroxypropylcellulose) (HPC)) is 98 % of control.

For `Clc1cncc(N2CCNCC2)n1`, the T/C was 100 % of control (dose: 12.5 mg/kg/injection, schedule: Q01DX009 (ip), vehicle: Klucel (hydroxypropylcellulose) (HPC)); 99 % of control (dose: 25.0 mg/kg/injection, schedule: Q01DX009 (ip), vehicle: Klucel (hydroxypropylcellulose) (HPC)); 108 % of control and 91 % of control under setting [6].

`CC(=O)CC(=O)OC(C)(C)C#CC(C)(C)OC(=O)CC(C)=O`: the T/C was 102 % of control (dose: 50.0 mg/kg/injection, schedule: Q01DX009 (ip), vehicle: saline); 103 % of control (dose: 100.0 mg/kg/injection, schedule: Q01DX009 (ip), vehicle: saline); 100 % of control (dose: 200.0 mg/kg/injection, schedule: Q01DX009 (ip), vehicle: saline).

`C=C(C)C(=O)N/C(N)=N\C(N)=O`: the T/C reads like this: under setting [1], 98 % of control; under setting [2], 101 % of control; under setting [3], 112 % of control.

Take `O=C(N=Nc1ccccc1)NC1CCCCC1`: the T/C under setting [4] is 100 % of control; the T/C under setting [5] was 101 % of control; the T/C (dose: 200.0 mg/kg/injection, schedule: Q01DX005 (ip), vehicle: saline with Tween-80) is 100 % of control.

Regarding `O=NN(CCCl)C(=O)OCCCSSCCCOC(=O)N(CCCl)N=O`, the T/C (dose: 50.0 mg/kg/injection, schedule: Q01DX009 (ip), vehicle: water) is 120 % of control.

Take `[Cl][Pt+2][Cl].[NH-]C1CCC1.[NH2-]`: the T/C by setting is: (dose: 1.5 mg/kg/injection, schedule: Q01DX005 (ip), vehicle: saline) 155 % of control and 167 % of control; (dose: 3.0 mg/kg/injection, schedule: Q01DX005 (ip), vehicle: saline) 155 % of control and 189 % of control and 190 % of control; (dose: 12.0 mg/kg/injection, schedule: Q01DX005 (ip), vehicle: saline) 214 % of control.

With `COc1cc([C@@H]2c3cc4c(cc3C[C@H]3COC(=O)[C@@H]32)OCO4)cc2c1OCO2`, the T/C by setting is: (dose: 1.8 mg/kg/injection, schedule: Q01DX009 (ip), vehicle: distilled water + Tween-80) 113 % of control; (dose: 3.0 mg/kg/injection, schedule: Q01DX009 (ip), vehicle: Klucel (hydroxypropylcellulose) (HPC)) 109 % of control; (dose: 3.75 mg/kg/injection, schedule: Q01DX009 (ip), vehicle: distilled water + Tween-80) 95 % of control; (dose: 6.0 mg/kg/injection, schedule: Q01DX009 (ip), vehicle: Klucel (hydroxypropylcellulose) (HPC)) 118 % of control; (dose: 12.0 mg/kg/injection, schedule: Q01DX009 (ip), vehicle: Klucel (hydroxypropylcellulose) (HPC)) 122 % of control.

With `Cc1ccc(NCCN(C)C)c2c(=O)c3ccc(O)cc3sc12`, the T/C was 110 % of control under setting [7] and 110 % of control under setting [8].

Regarding `COC(=O)C1=C(C(=O)OC)C2C=CC1C1C(OC(C)=O)C(OC(C)=O)C21` (stereo not given), the T/C by setting is: under setting [6], 100 % of control; (dose: 100.0 mg/kg/injection, schedule: Q01DX009 (ip), vehicle: Klucel (hydroxypropylcellulose) (HPC)) 100 % of control; (dose: 200.0 mg/kg/injection, schedule: Q01DX009 (ip), vehicle: Klucel (hydroxypropylcellulose) (HPC)) 107 % of control.

Take `CC1(C)CC(OP(=O)(OCCN2CC2)OCCN2CC2)CC(C)(C)N1O`: the T/C is 107 % of control under setting [7]; 100 % of control under setting [8]; 96 % of control (dose: 200.0 mg/kg/injection, schedule: Q01DX009 (ip), vehicle: saline with Tween-80).

Turning to `CC1(C(N)C(=O)O)CC(Cl)=NO1` (stereo not given), the T/C was 108 % of control (dose: 4.0 mg/kg/injection, schedule: Q01DX009 (ip), vehicle: other); 103 % of control (dose: 8.0 mg/kg/injection, schedule: Q01DX009 (ip), vehicle: other); 100 % of control (dose: 16.0 mg/kg/injection, schedule: Q01DX009 (ip), vehicle: other); 103 % of control (dose: 32.0 mg/kg/injection, schedule: Q01DX009 (ip), vehicle: other); 103 % of control (dose: 64.0 mg/kg/injection, schedule: Q01DX009 (ip), vehicle: other); 94 % of control (dose: 128.0 mg/kg/injection, schedule: Q01DX009 (ip), vehicle: other).

As to `O=C1CCC(Cc2ccc(Br)cc2)C(=O)N1` (stereo not given), the T/C was 104 % of control (dose: 60.0 mg/kg/injection, schedule: Q01DX005 (ip), vehicle: saline with Tween-80); 98 % of control (dose: 120.0 mg/kg/injection, schedule: Q01DX005 (ip), vehicle: saline with Tween-80); 98 % of control (dose: 240.0 mg/kg/injection, schedule: Q01DX005 (ip), vehicle: saline with Tween-80).

For `CCN(CC)CCOCC(=O)Nc1c(C)cccc1Cl`, the T/C by setting is: (dose: 50.0 mg/kg/injection, schedule: Q04DX003 (ip), vehicle: saline) 102 % of control and 113 % of control and 96 % of control; (dose: 100.0 mg/kg/injection, schedule: Q04DX003 (ip), vehicle: saline) 100 % of control and 101 % of control and 120 % of control; (dose: 200.0 mg/kg/injection, schedule: Q04DX003 (ip), vehicle: saline) 88 % of control and 92 % of control and 95 % of control.

As for `Cc1ccccc1N`, the T/C (dose: 50.0 mg/kg/injection, schedule: Q01DX009 (ip), vehicle: saline sonified) was 100 % of control; the T/C (dose: 100.0 mg/kg/injection, schedule: Q01DX009 (ip), vehicle: saline sonified) was 100 % of control; the T/C (dose: 200.0 mg/kg/injection, schedule: Q01DX009 (ip), vehicle: saline sonified) was 104 % of control.
